We go through six molecules from ChEMBL document CHEMBL1201862, “PubChem BioAssay data set” (2004).

The source made the active and inactive calls.

In test [1] the target is T1, Acyl-homoserine lactone acylase PvdQ (Pseudomonas aeruginosa (strain LESB58), UniProt Q9I194).
T1 sequence (Q9I194 whole entry): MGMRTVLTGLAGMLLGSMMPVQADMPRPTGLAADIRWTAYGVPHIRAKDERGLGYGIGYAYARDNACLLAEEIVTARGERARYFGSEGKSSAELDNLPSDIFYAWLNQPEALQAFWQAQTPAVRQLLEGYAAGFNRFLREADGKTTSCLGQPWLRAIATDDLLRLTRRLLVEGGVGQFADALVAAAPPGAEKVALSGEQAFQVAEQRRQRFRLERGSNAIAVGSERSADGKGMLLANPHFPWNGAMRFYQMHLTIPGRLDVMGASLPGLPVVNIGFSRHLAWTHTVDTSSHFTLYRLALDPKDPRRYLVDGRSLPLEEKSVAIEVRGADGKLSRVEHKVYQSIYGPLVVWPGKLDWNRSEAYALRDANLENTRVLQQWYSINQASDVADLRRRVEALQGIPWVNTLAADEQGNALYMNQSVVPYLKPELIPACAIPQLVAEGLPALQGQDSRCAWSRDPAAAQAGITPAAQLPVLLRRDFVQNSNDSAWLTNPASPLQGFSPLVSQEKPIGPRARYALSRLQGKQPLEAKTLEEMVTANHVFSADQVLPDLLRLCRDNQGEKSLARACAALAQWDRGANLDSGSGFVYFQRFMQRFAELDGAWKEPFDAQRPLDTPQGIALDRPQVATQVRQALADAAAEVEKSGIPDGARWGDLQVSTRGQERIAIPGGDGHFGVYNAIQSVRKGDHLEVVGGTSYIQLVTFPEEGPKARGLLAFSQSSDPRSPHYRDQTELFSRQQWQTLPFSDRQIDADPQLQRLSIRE
The test can be described thus: P. aeruginosa PvdQ acylase inhibitors, dose response, biochemical, fluorescence, plate reader and imaging, cherry-picks (AID 493231).

Test [2] deals with HeLa. Nature of the test: HeLa cell cytotoxicity, dose response, cytotoxicity control, 48 h, plate reader, cherry-picks (AID 504942). It counts as functional, cell-based. Particulars: Homo sapiens.
Test [3] has as its system Jurkat. Nature of the test: SAR Analysis of small molecule inhibitors of […] specific antigen receptor-induced NF-kB activation in a Jurkat cell line using a luminescence assay - Set 3. [Related pubchem assays (depositor defined):AID435022, AID435025, AID465]. It counts as functional, cell-based. Particulars: Homo sapiens.
Test [4] deals with HEK293. The test can be described thus: cytotoxicity in HEK293T NF-kB-Luc cells, SAR follow-up, cytotoxicity control for NF-kB activator project, cell-based, resazurin fluorescence (AID 493251). The format is functional. Conditions: Homo sapiens. For orientation: The colour change of resazurin is a common sign of viable cells or microbes.
The test system of test [5] is HEK293. The test can be described thus: SAR Analysis of small molecule inhibitors of B-cell specific antigen receptor-induced NF-kB activation in a HEK-293T cell line using a luminescence assay - Set 2. [Related pubchem assays (depositor defined):AID435022, AID435025, AID489021]. It counts as functional, cell-based. Conditions: Homo sapiens.
The target in test [6] is T2, Caspase-7 (Homo sapiens, UniProt P55210).
T2 sequence (P55210 whole entry): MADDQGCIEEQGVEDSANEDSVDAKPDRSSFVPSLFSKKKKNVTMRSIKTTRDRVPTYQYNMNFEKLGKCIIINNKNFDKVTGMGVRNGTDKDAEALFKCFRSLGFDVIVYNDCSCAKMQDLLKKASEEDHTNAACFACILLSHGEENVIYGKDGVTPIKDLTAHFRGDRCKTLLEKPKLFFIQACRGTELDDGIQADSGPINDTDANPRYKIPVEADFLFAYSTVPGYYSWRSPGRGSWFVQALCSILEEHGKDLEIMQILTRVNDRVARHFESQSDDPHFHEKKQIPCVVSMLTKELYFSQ
The test can be described thus: procaspase-7 activators, dose response, dual procaspase-3/-7 activator project, biochemical, absorbance, human (AID 504330).

Test [7] has as its target Beta Lactamase (Pseudomonas aeruginosa, UniProt Q932Y6). The test can be described thus: beta-lactamase reporter inhibitor potency, dose response, artefact control for TLR9-MyD88 binding inhibitor project, BLA reporter cells, FRET fluorescence (AID 588341).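 Note: cell based assay in CHO-K1 cells stably expressing beta-lactamase.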 It counts as cell-based.
Test [8] deals with CHO. Nature of the test: cytotoxicity in TLR9-MyD88 CHO cells, dose response, cytotoxicity control for TLR9-MyD88 binding inhibitor project, cell-based, luminescence (AID 588339).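 Note: CHO cells stably coexpressing TLR9 and MyD88 fusions from primary screen; compound exposure lasted 48 hours before viability readout.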 The format is functional, hamster. Particulars: Cricetulus griseus.
Test [9] has as its target T3, Caspase-3 (Homo sapiens, UniProt P42574).
T3 sequence (P42574 whole entry): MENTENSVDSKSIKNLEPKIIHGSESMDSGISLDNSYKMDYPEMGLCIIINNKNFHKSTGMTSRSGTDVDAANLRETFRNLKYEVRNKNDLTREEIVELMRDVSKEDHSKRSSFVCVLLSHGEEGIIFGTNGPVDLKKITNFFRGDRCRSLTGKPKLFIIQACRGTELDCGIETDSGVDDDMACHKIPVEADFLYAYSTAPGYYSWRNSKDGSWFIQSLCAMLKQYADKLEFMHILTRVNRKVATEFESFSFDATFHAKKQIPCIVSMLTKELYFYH
Nature of the test: procaspase-3 activation potency of dual hits, dose response, counter-screen for dual procaspase-3/7 activator project, biochemical, absorbance, PC-3 D3A mutant (AID 504328). For orientation: Counterscreens check selectivity or assay interference.

Test [10] deals with Hexokinase HKDC1 (Homo sapiens, UniProt Q2TB90). Nature of the test: SAR analysis of small molecule inhibitors of hexokinase domain containing I (HKDC1). [Related pubchem assays (depositor defined):AID493160, AID493190]. It counts as functional.
The target in test [11] is Hexokinase-1 (Homo sapiens, UniProt P19367). The test can be described thus: SAR analysis of small molecule inhibitors of hexokinase domain containing I (HKDC1) in the hexokinase 1 selectivity assay. [Related pubchem assays (depositor defined):AID493160, AID493190]. The format is functional.
For test [12], the system named is Vero. Nature of the test: Vero cell cytotoxicity, cytotoxicity control for flavivirus capping enzyme inhibitors (AID 588742). It counts as functional. Conditions: Chlorocebus sabaeus.
The target in test [13] is T4, Mannose-6-phosphate isomerase (Homo sapiens, UniProt P34949).
T4 sequence (P34949 whole entry): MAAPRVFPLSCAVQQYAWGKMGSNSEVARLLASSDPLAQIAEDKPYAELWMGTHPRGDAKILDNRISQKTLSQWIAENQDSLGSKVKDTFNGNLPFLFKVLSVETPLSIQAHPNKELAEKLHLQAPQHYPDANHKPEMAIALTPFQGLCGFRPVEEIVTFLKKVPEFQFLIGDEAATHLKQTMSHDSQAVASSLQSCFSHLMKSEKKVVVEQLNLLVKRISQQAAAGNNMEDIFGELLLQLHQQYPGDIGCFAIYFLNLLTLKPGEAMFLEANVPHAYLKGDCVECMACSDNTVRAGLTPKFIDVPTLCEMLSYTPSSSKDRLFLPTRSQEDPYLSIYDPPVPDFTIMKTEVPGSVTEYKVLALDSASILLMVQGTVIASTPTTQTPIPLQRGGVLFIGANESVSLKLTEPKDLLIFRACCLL
Nature of the test: human PMI inhibitors, high substrate, primary screen, biochemical, fluorescence intensity, high mannose 6-phosphate (AID 1220).

In test [14] the target is T5, SUMO-activating enzyme (Homo sapiens, UniProt Q9UBT2). Nature of the test: SUMOylation inhibitor hit validation, confirmation, SUMOylation inhibitor project, biochemical, AlphaScreen (AID 2018). It counts as functional. A general note: Alpha assays give light when donor and acceptor beads are brought close together.
The nature of test [15]: NIH-3T3 fibroblast cytotoxicity, dose response, cytotoxicity control, cell-based, fluorescence, Alamar Blue, secondary assay (AID 2327).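 Note: NIH-3T3 mouse fibroblasts cultured with fluconazole at 8 µg/mL.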 It counts as functional.
Test [16] concerns the target Serine/threonine-protein phosphatase (Candida dubliniensis (strain CD36 / CBS 7987 / NCPF 3949 / NRRLY-17841) (Yeast), UniProt B9W6M3). The test can be described thus: calcineurin pathway inhibitors in yeast reporter, dose response, S. cerevisiae, CDRE-lacZ, luminescence, secondary (AID 2388).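 Note: yeast reporter cells carrying a calcineurin-responsive lacZ construct stimulated with calcium chloride; luminescent beta-galactosidase reporter signal in whole cells rather than isolated phosphatase activity; potency for inhibition where a drop in reporter signal means calcineurin blockade.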 The format is functional, cell-based.
Test [17] in a line: C. albicans growth with fluconazole, confirmation, fluorescence, retest (AID 2467). It counts as functional, cell-based.
For test [18], the target named is ATP-dependent molecular chaperone HSP82 (Candida albicans (strain WO-1) (Yeast), UniProt C4YTQ8). Nature of the test: loss of DOC-induced GRE-beta-galactosidase reporter signal, dose response, Hsp90 inhibitor project, S. cerevisiae, luminescence (AID 2400).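 Note: beta-galactosidase luminescence from glucocorticoid response element reporter as proxy for Hsp90 function; inhibitor potency where signal loss means Hsp90 inhibition.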 It counts as functional, cell-based.
The target in test [19] is T5, SUMO-activating enzyme. The test can be described thus: inhibitors of in vitro SUMOylation cascade, primary screen, biochemical, HTRF, uHTS (AID 2006). It counts as protein-complex assay.
In test [20] the target is T6, Histone-lysine N-methyltransferase NSD2 (Homo sapiens, UniProt O96028).
T6 sequence (O96028 whole entry): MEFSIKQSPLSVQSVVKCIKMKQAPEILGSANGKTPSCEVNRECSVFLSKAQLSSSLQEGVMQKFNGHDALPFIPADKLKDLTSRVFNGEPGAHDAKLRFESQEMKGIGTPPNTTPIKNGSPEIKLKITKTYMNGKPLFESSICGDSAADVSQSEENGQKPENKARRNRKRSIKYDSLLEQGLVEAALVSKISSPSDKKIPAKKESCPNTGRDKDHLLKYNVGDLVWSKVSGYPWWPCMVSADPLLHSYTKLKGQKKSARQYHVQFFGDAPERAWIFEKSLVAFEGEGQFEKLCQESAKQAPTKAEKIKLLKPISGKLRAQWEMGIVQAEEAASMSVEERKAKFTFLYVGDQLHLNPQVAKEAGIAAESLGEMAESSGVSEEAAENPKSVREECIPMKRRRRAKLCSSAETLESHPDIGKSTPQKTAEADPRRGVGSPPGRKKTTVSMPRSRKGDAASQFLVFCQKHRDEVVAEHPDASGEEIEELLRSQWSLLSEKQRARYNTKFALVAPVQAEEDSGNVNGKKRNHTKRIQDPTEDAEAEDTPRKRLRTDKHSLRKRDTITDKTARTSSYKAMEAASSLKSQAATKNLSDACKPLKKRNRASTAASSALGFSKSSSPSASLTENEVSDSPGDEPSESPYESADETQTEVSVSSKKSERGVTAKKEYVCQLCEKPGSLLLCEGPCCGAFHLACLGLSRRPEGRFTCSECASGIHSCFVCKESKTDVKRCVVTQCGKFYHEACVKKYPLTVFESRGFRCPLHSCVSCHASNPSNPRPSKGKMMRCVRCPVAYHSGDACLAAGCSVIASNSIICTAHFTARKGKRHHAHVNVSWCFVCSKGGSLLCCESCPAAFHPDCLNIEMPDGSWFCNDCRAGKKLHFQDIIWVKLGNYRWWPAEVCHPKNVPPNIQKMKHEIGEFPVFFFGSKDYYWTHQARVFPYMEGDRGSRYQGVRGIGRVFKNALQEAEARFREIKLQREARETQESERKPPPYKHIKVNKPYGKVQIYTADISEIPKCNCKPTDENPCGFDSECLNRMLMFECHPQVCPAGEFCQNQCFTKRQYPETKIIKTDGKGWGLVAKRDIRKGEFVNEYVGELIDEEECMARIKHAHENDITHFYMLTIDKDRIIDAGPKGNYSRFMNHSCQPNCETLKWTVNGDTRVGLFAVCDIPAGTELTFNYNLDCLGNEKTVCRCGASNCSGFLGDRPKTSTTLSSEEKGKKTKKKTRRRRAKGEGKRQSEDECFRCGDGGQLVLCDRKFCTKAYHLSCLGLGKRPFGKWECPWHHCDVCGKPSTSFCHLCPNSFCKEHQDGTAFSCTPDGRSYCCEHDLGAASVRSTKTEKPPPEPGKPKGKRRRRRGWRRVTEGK
The format is biochemical.

For test [21], the system named is HEK293. The test can be described thus: optical interference in Abeta FP readout, dose response, artefact control for IDE activator project, biochemical, fluorescence polarization (AID 588442). It counts as functional, cell-based. Conditions: Homo sapiens.
Test [22] deals with T7, Insulin-degrading enzyme (Homo sapiens, UniProt P14735). Nature of the test: activators of recombinant IDE enzyme, dose response, counter-screen for IDE activator project, biochemical, fluorescence polarization (AID 588681).
Test [23] addresses T7, Insulin-degrading enzyme. Nature of the test: activators of endogenous IDE in HEK cells, dose response, cell-based, fluorescence polarization (AID 588439). The format is functional.
Test [24] concerns HEK293. The test can be described thus: HEK cell cytotoxicity by LDH release, dose response, cytotoxicity control for IDE activator project, fluorescence, HEK cells (AID 588440).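 Note: cytotoxicity by LDH release measuring loss of membrane integrity.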 It counts as functional, cell-based. Particulars: Homo sapiens.

T5 sequence (Q9UBE0 whole entry): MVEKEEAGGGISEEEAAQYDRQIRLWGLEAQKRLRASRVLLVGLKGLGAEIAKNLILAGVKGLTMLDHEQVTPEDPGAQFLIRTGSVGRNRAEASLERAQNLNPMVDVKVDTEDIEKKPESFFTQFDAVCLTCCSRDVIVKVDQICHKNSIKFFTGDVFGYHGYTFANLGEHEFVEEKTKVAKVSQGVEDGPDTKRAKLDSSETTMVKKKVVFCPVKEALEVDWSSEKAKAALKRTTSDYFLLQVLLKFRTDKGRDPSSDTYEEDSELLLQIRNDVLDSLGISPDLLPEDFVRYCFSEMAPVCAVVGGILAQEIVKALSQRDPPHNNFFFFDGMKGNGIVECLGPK
T5 sequence (Q9UBT2 whole entry): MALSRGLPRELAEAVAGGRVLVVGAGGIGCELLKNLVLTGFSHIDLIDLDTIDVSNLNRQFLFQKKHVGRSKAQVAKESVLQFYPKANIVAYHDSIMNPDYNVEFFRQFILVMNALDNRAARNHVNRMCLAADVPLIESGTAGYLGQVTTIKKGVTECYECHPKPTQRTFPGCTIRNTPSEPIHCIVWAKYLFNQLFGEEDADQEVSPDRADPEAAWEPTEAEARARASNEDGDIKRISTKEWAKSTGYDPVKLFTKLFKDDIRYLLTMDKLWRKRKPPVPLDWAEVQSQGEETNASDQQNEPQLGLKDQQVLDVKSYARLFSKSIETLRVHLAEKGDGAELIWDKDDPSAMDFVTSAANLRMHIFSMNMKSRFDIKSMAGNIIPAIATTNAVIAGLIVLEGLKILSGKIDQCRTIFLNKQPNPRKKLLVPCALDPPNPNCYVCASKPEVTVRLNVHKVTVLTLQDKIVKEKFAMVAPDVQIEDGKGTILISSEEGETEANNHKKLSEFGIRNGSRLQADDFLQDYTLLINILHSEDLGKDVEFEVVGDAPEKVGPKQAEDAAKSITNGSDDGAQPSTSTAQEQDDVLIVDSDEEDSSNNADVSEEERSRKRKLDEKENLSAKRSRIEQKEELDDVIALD
T7 sequence (P14735 whole entry): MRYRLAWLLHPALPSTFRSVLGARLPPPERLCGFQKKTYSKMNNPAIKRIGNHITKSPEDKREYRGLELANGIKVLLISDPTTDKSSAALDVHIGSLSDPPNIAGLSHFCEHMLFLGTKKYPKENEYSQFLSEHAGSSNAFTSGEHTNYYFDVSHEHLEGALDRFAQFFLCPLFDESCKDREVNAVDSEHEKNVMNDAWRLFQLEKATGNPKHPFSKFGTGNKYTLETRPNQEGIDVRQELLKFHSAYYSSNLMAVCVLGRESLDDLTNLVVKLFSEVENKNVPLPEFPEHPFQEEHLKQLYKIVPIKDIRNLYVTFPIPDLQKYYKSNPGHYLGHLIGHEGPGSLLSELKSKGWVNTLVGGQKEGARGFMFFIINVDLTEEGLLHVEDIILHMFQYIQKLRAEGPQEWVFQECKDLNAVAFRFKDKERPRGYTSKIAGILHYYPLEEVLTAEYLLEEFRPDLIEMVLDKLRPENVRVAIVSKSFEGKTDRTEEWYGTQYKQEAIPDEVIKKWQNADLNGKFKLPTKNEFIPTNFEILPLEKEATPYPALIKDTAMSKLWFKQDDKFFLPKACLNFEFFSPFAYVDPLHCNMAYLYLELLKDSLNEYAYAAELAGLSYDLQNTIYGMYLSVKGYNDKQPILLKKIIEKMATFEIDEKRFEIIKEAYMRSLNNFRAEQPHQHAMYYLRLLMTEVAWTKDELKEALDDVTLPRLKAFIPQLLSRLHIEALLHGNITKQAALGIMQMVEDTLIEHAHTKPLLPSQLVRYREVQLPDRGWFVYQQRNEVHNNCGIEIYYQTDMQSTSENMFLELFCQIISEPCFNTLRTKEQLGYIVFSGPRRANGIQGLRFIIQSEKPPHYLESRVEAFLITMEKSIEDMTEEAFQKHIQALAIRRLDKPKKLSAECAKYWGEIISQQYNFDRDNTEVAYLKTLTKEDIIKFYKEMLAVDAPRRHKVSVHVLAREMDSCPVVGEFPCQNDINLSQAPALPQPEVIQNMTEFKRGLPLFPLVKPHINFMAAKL
Sequence of Hexokinase HKDC1 (Q2TB90 whole entry, the tested form may be a part): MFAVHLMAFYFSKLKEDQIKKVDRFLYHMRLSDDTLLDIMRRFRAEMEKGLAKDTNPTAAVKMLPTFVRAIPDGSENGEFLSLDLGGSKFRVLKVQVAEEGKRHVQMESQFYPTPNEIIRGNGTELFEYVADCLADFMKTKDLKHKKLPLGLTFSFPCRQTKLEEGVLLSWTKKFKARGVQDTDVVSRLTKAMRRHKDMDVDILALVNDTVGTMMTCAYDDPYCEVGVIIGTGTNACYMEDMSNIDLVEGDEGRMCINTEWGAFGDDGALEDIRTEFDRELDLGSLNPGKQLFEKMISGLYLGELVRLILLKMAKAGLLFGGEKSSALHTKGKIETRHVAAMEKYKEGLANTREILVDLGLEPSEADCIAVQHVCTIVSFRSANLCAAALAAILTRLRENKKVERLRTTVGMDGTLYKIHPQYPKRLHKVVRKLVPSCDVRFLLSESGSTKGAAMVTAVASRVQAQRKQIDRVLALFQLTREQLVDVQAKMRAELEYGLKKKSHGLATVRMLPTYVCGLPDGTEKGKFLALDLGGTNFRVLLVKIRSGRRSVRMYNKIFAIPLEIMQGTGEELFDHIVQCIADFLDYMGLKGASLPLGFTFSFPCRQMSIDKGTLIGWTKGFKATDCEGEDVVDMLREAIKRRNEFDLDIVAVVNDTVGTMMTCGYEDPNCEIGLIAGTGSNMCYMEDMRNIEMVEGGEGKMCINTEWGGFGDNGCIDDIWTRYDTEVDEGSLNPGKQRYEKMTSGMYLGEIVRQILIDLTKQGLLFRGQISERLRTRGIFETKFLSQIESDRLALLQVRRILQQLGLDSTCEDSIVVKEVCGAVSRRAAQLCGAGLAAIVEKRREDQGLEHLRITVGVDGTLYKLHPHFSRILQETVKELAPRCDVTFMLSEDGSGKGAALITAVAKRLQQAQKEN
Sequence of ATP-dependent molecular chaperone HSP82 (C4YTQ8 whole entry): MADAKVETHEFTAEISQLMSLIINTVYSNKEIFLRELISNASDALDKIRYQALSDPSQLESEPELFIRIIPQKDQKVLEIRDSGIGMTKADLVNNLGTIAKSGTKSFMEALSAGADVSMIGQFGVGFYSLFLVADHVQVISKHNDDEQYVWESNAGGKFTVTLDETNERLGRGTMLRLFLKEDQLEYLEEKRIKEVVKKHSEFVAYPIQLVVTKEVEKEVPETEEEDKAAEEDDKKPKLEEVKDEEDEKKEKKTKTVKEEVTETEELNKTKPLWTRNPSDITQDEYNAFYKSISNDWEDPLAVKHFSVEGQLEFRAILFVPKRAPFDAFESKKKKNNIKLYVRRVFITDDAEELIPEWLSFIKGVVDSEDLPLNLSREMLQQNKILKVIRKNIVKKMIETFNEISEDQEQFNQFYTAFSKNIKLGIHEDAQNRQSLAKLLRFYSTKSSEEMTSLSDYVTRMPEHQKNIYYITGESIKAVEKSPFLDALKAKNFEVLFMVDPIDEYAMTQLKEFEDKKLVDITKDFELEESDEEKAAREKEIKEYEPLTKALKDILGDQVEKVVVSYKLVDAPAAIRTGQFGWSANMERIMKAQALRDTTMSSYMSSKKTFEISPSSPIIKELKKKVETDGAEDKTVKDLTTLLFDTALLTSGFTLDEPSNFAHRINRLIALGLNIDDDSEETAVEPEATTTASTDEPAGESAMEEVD
Sequence of Hexokinase-1 (P19367 whole entry, the tested form may be a part): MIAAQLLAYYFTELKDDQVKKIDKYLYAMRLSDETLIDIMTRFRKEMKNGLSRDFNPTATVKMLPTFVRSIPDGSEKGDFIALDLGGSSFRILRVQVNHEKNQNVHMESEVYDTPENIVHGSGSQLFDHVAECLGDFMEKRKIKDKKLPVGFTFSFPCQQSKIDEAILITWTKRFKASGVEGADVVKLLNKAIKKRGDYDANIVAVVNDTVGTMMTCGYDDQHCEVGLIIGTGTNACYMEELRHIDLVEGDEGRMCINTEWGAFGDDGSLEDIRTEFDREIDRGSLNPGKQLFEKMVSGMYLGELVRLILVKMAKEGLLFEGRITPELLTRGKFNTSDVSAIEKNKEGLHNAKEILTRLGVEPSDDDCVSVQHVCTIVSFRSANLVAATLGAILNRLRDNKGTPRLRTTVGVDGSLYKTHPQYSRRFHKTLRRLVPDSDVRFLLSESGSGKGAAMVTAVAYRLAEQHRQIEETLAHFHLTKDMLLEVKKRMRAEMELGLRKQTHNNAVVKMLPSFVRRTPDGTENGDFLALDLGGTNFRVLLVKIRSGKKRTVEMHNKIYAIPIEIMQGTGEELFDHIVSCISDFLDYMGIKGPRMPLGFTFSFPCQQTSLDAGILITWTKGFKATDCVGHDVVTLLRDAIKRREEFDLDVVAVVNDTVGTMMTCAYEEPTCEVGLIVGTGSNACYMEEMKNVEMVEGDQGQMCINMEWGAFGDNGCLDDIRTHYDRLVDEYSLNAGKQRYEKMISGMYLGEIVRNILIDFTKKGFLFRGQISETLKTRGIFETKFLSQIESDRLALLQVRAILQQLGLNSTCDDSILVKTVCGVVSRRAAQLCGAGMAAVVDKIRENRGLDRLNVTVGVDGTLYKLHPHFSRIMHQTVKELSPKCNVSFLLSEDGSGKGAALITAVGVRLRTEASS
Sequence of Beta Lactamase (Q932Y6 whole entry, the tested form may be a part): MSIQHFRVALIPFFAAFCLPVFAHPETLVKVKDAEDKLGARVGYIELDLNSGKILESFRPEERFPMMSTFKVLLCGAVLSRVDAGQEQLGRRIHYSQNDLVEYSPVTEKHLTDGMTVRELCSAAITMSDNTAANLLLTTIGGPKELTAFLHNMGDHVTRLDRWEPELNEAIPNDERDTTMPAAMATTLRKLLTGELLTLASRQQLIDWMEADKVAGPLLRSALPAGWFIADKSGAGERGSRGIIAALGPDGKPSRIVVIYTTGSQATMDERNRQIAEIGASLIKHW

Turning to `COc1ccc(-c2cc3ncccc3cn2)cc1`, the concentration at half-maximal activity (AC50) was 7.13 µM (active) in [1] and 72.9 µM (active) in [2].

Take `CCOc1ccc(-c2nc(CSCC(=O)NCC3CCCO3)c(C)o2)cc1` (centres undefined): the IC50 is > 80 µM (inactive) in test [3], > 80 µM (inactive) in test [4] and 67.7 µM (inactive) in test [5].

As for `COc1ccccc1N1C(=O)C2C(C(=O)c3ccccc3)=NN(c3ccccc3)C2C1=O` (centres undefined), the EC50 in test [6] and in test [9] was > 85.3 µM (inactive) in each case. In addition, the IC50 was 9.37 µM (active) in [7] and > 49.8 µM (inactive) in test [8].

Consider `Cc1ccc(S(=O)(=O)Nc2cc(SCCC(=O)O)c(O)c3ccccc23)cc1`, for which the values for the IC50 in [10] and in [11] were 10 µM (active) and > 80 µM (inactive), respectively.

Take `CN(C)c1cc(N/N=C/c2ccc(Cl)cc2)nc(N(C)C)n1`: the 50% cytotoxic concentration (CC50) in test [12] was > 40 µM (active). The IC50 was > 50 µM (not active) in [13], 1 µM (active) in test [14] and 14.2 µM (active) in [19]. Further, the EC50 in test [15] is > 160 µM (inactive); in test [16], > 180 µM (inactive); in test [17] it was 0.401 µM (active); in test [18], > 160 µM (inactive). Also, the half-maximal activity concentration (AC50) in test [20] is 6.18 µM (active).

Take `Cc1ccc(S(=O)(=O)/N=C/c2cc(Br)ccc2O)cc1`: the EC50 in [21], in [22] and in test [23] was > 54.7 µM (inactive) each time. In addition, in [24], the IC50 was > 89.1 µM (inactive).

What is called AC50 is the midpoint of the concentration-response curve, whichever way the signal moves. The term IC50 denotes the concentration needed to halve the response being measured. Broadly, the EC50 is the concentration needed to bring the measured effect to its halfway point. By CC50 is commonly meant the concentration at which the toxic effect on the cells reaches its halfway point.
